From PubChem BioAssay AID1259407 (Chemical Carcinogenesis Research Information System (CCRIS), 2018)
Calls of active or inactive are those of the source. No rule for the calls is given here.

System: CCRIS mutagenicity, Ames/micronucleus/aberration tests
Test: CCRIS mutagenicity studies
[1] = Test System: AMES SALMONELLA TYPHIMURIUM, Strain/Indicator: TA98, Metabolic Activation: NONE, Method: STANDARD PLATE
[2] = Test System: AMES SALMONELLA TYPHIMURIUM, Strain/Indicator: TA100, Metabolic Activation: NONE, Method: STANDARD PLATE
[3] = Test System: AMES SALMONELLA TYPHIMURIUM, Strain/Indicator: TA102, Metabolic Activation: NONE, Method: STANDARD PLATE
[4] = Test System: AMES SALMONELLA TYPHIMURIUM, Strain/Indicator: TA102, Metabolic Activation: NONE, Method: PREINCUBATION
[5] = Test System: AMES SALMONELLA TYPHIMURIUM, Strain/Indicator: TA1535, Metabolic Activation: NONE, Method: STANDARD PLATE
[6] = Test System: AMES SALMONELLA TYPHIMURIUM, Strain/Indicator: TA1535, Metabolic Activation: RAT, LIVER, S-9, AROCLOR 1254, Method: STANDARD PLATE
[7] = Test System: AMES SALMONELLA TYPHIMURIUM, Strain/Indicator: TA1537, Metabolic Activation: NONE, Method: STANDARD PLATE
[8] = Test System: AMES SALMONELLA TYPHIMURIUM, Strain/Indicator: TA1537, Metabolic Activation: RAT, LIVER, S-9, AROCLOR 1254, Method: STANDARD PLATE

Compound: Nc1nc(-c2ccc([N+](=O)[O-])cc2)nc2c1ncn2[C@H]1C[C@H](O)[C@@H](CO)O1
- mutagenic call (Test System: AMES SALMONELLA TYPHIMURIUM, Strain/Indicator: TA98(1,8-DNP), Metabolic Activation: NONE, Method: PREINCUBATION): active; positive
- mutagenic call (Test System: AMES SALMONELLA TYPHIMURIUM, Strain/Indicator: TA98(1,8-DNP), Metabolic Activation: RAT, LIVER, S-9, PCB, Method: PREINCUBATION): active; positive
- mutagenic call (Test System: AMES SALMONELLA TYPHIMURIUM, Strain/Indicator: TA98(NR), Metabolic Activation: NONE, Method: PREINCUBATION): active; positive
- mutagenic call (Test System: AMES SALMONELLA TYPHIMURIUM, Strain/Indicator: TA98(NR), Metabolic Activation: RAT, LIVER, S-9, PCB, Method: PREINCUBATION): active; positive
- mutagenic call (Test System: AMES SALMONELLA TYPHIMURIUM, Strain/Indicator: TA98, Metabolic Activation: NONE, Method: PREINCUBATION): active; positive
- mutagenic call (Test System: AMES SALMONELLA TYPHIMURIUM, Strain/Indicator: TA98, Metabolic Activation: RAT, LIVER, S-9, PCB, Method: PREINCUBATION): active; positive
- mutagenic call (Test System: AMES SALMONELLA TYPHIMURIUM, Strain/Indicator: TA100(1,8-DNP), Metabolic Activation: NONE, Method: PREINCUBATION): active; positive
- mutagenic call (Test System: AMES SALMONELLA TYPHIMURIUM, Strain/Indicator: TA100(NR), Metabolic Activation: NONE, Method: PREINCUBATION): active; positive
- mutagenic call (Test System: AMES SALMONELLA TYPHIMURIUM, Strain/Indicator: TA100(NR), Metabolic Activation: RAT, LIVER, S-9, PCB, Method: PREINCUBATION): active; positive
- mutagenic call (Test System: AMES SALMONELLA TYPHIMURIUM, Strain/Indicator: TA100, Metabolic Activation: NONE, Method: PREINCUBATION): active; positive
- mutagenic call (Test System: AMES SALMONELLA TYPHIMURIUM, Strain/Indicator: TA100, Metabolic Activation: RAT, LIVER, S-9, PCB, Method: PREINCUBATION): active; positive
- mutagenic call (Test System: AMES SALMONELLA TYPHIMURIUM, Strain/Indicator: YG1020, Metabolic Activation: NONE, Method: PREINCUBATION): active; positive
- mutagenic call (Test System: AMES SALMONELLA TYPHIMURIUM, Strain/Indicator: YG1020, Metabolic Activation: RAT, LIVER, S-9, PCB, Method: PREINCUBATION): active; positive
- mutagenic call (Test System: AMES SALMONELLA TYPHIMURIUM, Strain/Indicator: YG1021, Metabolic Activation: NONE, Method: PREINCUBATION): active; positive
- mutagenic call (Test System: AMES SALMONELLA TYPHIMURIUM, Strain/Indicator: YG1021, Metabolic Activation: RAT, LIVER, S-9, PCB, Method: PREINCUBATION): active; positive
- mutagenic call (Test System: AMES SALMONELLA TYPHIMURIUM, Strain/Indicator: YG1024, Metabolic Activation: NONE, Method: PREINCUBATION): active; positive
- mutagenic call (Test System: AMES SALMONELLA TYPHIMURIUM, Strain/Indicator: YG1024, Metabolic Activation: RAT, LIVER, S-9, PCB, Method: PREINCUBATION): active; positive
- mutagenic call (Test System: AMES SALMONELLA TYPHIMURIUM, Strain/Indicator: YG1025, Metabolic Activation: NONE, Method: PREINCUBATION): active; positive
- mutagenic call (Test System: AMES SALMONELLA TYPHIMURIUM, Strain/Indicator: YG1025, Metabolic Activation: RAT, LIVER, S-9, PCB, Method: PREINCUBATION): active; positive
- mutagenic call (Test System: AMES SALMONELLA TYPHIMURIUM, Strain/Indicator: YG1026, Metabolic Activation: NONE, Method: PREINCUBATION): active; positive
- mutagenic call (Test System: AMES SALMONELLA TYPHIMURIUM, Strain/Indicator: YG1026, Metabolic Activation: RAT, LIVER, S-9, PCB, Method: PREINCUBATION): active; positive
- mutagenic call (Test System: AMES SALMONELLA TYPHIMURIUM, Strain/Indicator: YG1029, Metabolic Activation: NONE, Method: PREINCUBATION): active; positive
- mutagenic call (Test System: AMES SALMONELLA TYPHIMURIUM, Strain/Indicator: YG1029, Metabolic Activation: RAT, LIVER, S-9, PCB, Method: PREINCUBATION): active; positive

Compound: CCNc1nc(N)nc(Cl)n1
- mutagenic call (Test System: AMES SALMONELLA TYPHIMURIUM, Strain/Indicator: TA97, Metabolic Activation: NONE, Method: STANDARD PLATE): inactive; negative
- mutagenic call [1]: inactive; negative
- mutagenic call [2]: inactive; negative

Compound: CCN(CCCl)c1ccc(-c2nc3ccc(-c4nc5ccc(N6CCN(C)CC6)cc5[nH]4)cc3[nH]2)cc1
- mutagenic call [1]: inactive; negative
- mutagenic call [2]: inactive; negative
- mutagenic call [3]: inactive; negative

Compound: CC(C)[C@@H]1CC[C@@H](C)C[C@H]1O
- mutagenic call (Test System: AMES SALMONELLA TYPHIMURIUM, Strain/Indicator: TA97, Metabolic Activation: NONE, Method: PREINCUBATION): inactive; negative
- mutagenic call (Test System: AMES SALMONELLA TYPHIMURIUM, Strain/Indicator: TA97, Metabolic Activation: RAT, LIVER, S-9, AROCLOR 1254, Method: PREINCUBATION): inactive; negative
- mutagenic call (Test System: AMES SALMONELLA TYPHIMURIUM, Strain/Indicator: TA97A, Metabolic Activation: NONE, Method: STANDARD PLATE): inactive; negative
- mutagenic call (Test System: AMES SALMONELLA TYPHIMURIUM, Strain/Indicator: TA97A, Metabolic Activation: RAT LIVER S-9, AROCLOR 1254, Method: STANDARD PLATE): inactive; negative
- mutagenic call [1]: inactive; negative
- mutagenic call (Test System: AMES SALMONELLA TYPHIMURIUM, Strain/Indicator: TA98, Metabolic Activation: RAT LIVER S-9, AROCLOR 1254, Method: STANDARD PLATE): inactive; negative
- mutagenic call (Test System: AMES SALMONELLA TYPHIMURIUM, Strain/Indicator: TA98, Metabolic Activation: RAT, LIVER, S-9, AROCLOR 1254, Method: STANDARD PLATE): inactive; negative
- mutagenic call [2]: inactive; negative
- mutagenic call (Test System: AMES SALMONELLA TYPHIMURIUM, Strain/Indicator: TA100, Metabolic Activation: RAT LIVER S-9, AROCLOR 1254, Method: STANDARD PLATE): inactive; negative
- mutagenic call (Test System: AMES SALMONELLA TYPHIMURIUM, Strain/Indicator: TA100, Metabolic Activation: RAT, LIVER, S-9, AROCLOR 1254, Method: STANDARD PLATE): inactive; negative
- mutagenic call [4]: inactive; negative
- mutagenic call [3]: inactive; negative
- mutagenic call (Test System: AMES SALMONELLA TYPHIMURIUM, Strain/Indicator: TA102, Metabolic Activation: RAT LIVER S-9, AROCLOR 1254, Method: STANDARD PLATE): inactive; negative
- mutagenic call (Test System: AMES SALMONELLA TYPHIMURIUM, Strain/Indicator: TA102, Metabolic Activation: RAT, LIVER, S-9, AROCLOR 1254, Method: PREINCUBATION): inactive; negative
- mutagenic call [5]: inactive; negative
- mutagenic call [6]: inactive; negative
- mutagenic call [7]: inactive; negative
- mutagenic call [8]: inactive; negative

Compound: C[n+]1c2ccccc2nc2ccccc21
- mutagenic call [1]: inactive; negative
- mutagenic call [4]: inactive; negative
- mutagenic call [3]: inactive; negative
- mutagenic call (Test System: AMES SALMONELLA TYPHIMURIUM, Strain/Indicator: TA1535, Metabolic Activation: NONE, Method: PREINCUBATION): inactive; negative
- mutagenic call [5]: inactive; negative
- mutagenic call [6]: inactive; negative
- mutagenic call [7]: active; positive
- mutagenic call [8]: active; positive
- mutagenic call (Test System: AMES SALMONELLA TYPHIMURIUM, Strain/Indicator: TA1538, Metabolic Activation: NONE, Method: STANDARD PLATE): inactive; negative
- mutagenic call (Test System: AMES SALMONELLA TYPHIMURIUM, Strain/Indicator: TA1538, Metabolic Activation: RAT, LIVER, S-9, AROCLOR 1254, Method: STANDARD PLATE): inactive; negative
- mutagenic call (Test System: AMES SALMONELLA TYPHIMURIUM, Strain/Indicator: TA1975, Metabolic Activation: NONE, Method: PREINCUBATION): inactive; negative
- mutagenic call (Test System: AMES SALMONELLA TYPHIMURIUM, Strain/Indicator: TA2638, Metabolic Activation: NONE, Method: STANDARD PLATE): inactive; negative
- mutagenic call (Test System: AMES SALMONELLA TYPHIMURIUM, Strain/Indicator: YG3001, Metabolic Activation: NONE, Method: PREINCUBATION): inactive; negative
- mutagenic call (Test System: AMES SALMONELLA TYPHIMURIUM, Strain/Indicator: YG3002, Metabolic Activation: NONE, Method: PREINCUBATION): inactive; negative
- mutagenic call (Test System: AMES SALMONELLA TYPHIMURIUM, Strain/Indicator: YG3003, Metabolic Activation: NONE, Method: PREINCUBATION): inactive; negative
- mutagenic call (Test System: E. COLI, Strain/Indicator: WP2 (PKM101), Metabolic Activation: NONE, Method: STANDARD PLATE): inactive; negative
- mutagenic call (Test System: E. COLI, Strain/Indicator: WP2 UVRA (PKM101), Metabolic Activation: NONE, Method: STANDARD PLATE): active; positive
